# In patent US20170049908A1 (priority 2015, published 2017):
# Read-outs that look alike come from different tables or passages of the source.
# What was measured:
# [1] = system: SU-DHL-8 cells; assay: cells; details: Homo sapiens, SU-DHL-8, 72 h, read-out: EC50 in picoM, SUDHL8
# [2] = system: Ramos cells; assay: cells; details: Homo sapiens, 72 h, read-out: EC50 in picoM, Ramos
# [3] = system: Ramos cells; details: for EC50: read-out: EC50 in picoM, Ramos, Table 3, agents and agent-linker intermediates, 3 days incubation
# [4] = system: SU-DHL-8 cells; details: for EC50: read-out: EC50 in picoM, SUDHL8, Table 3, agents and agent-linker intermediates, 3 days incubation
# [5] = system: HL60, U937, MV411, Hut78, H929, and RAMOS; assay: Cytotoxic activity on six human blood cancer cell types with and without ATRA (overall statements); assay type: cell-based; details: all cell lines tested except RAMOS
# Method: Agent loading (e.g., “n” of Formula (I)) was determined to be about 4.
# In this study and as determined by antibody cell staining, and with the exception of HL-60 cells, all cells expressed various levels of cell surface CD38 prior to ATRA addition.
compound,measurement,setting,value
"C[C@]12CC[C@H](OC(=O)NCCCNCCCN)C[C@H]1CC[C@@H]1[C@@H]2CC[C@]2(C)[C@H](c3ccc(=O)oc3)CC[C@]12O [CEN-373, 5-{(1S,2S,5S,7R,10R,11S,14S,15R)-5-[3-(3-Aminopropylamino)propylaminocarbonyloxy]-11-hydroxy-2,15-dimethyltetracyclo[8.7.0.02, 7.011, 15]heptadec-14-yl}-2-pyranone]",EC50,[1],5.9 nM
same,EC50,[2],4 nM
"C[C@]12CC[C@H](O)C[C@H]1CC[C@@H]1[C@@H]2CC[C@]2(C)[C@@H](C3=CC(=O)OC3)CC[C@]12O [Digitoxigenin, reference compound]",EC50,[1],> 50 nM
same,EC50,[2],> 50 nM
"C[C@]1(OC(=O)NCCCN2CCN(CCCN)CC2)CC[C@@]2(C)[C@H](CC[C@@H]3[C@@H]2CC[C@]2(C)[C@@](C)(C4=CC(=O)OC4)CC[C@]32O)C1 [CEN-381, 4-(3-{(1S,2S,5S,7R,10R,11S,14R,15R)-11-Hydroxy-2,5,14,15-tetramethyl-14-(5-oxo-2H-fur-3-yl)tetracyclo[8.7.0.02, 7.011, 15]heptadec-5-yloxycarbonylamino}propyl)-1-(3-aminopropyl)piperazine]",EC50,[1],> 50 nM
same,EC50,[2],> 50 nM
"C[C@]12CC[C@H](OC3OC[C@H](N)[C@@H](O)[C@@H]3O)C=C1CC[C@@H]1[C@@H]2CC[C@]2(C)[C@@H](c3ccc(=O)oc3)CC[C@]12O (stereo partly drawn) [CEN09-106, Scillarenin-4-amino-4-deoxy-L-xylopyranoside]",EC50,[3],1.9 nM
same,EC50,[4],2.07 nM
"C[C@]1(OC(=O)NCCCN2CCN(CCCN)CC2)CC[C@@]2(C)[C@H](CC[C@@H]3[C@@H]2CC[C@]2(C)[C@](C)(c4ccc(=O)oc4)CC[C@]32O)C1 [CEN-371, 4-(3-{(1S,2S,5S,7R,10R,11S,14S,15R)-11-Hydroxy-2,5,14,15-tetramethyl-14-(6-oxo-3-pyranyl)tetracyclo[8 0.7.0.02, 7.011, 15]heptadec-5-yloxycarbonylamino}propyl)-1-(3-aminopropyl)piperazine]","cytotoxic effect in Ramos cells, in words","[3]; FIG. 4 legend, unconjugated antibody, linker-agent and agents",modestly active
same,EC50,[3],7.81 nM
same,"cytotoxic effect in SU-DHL-8 cells, in words","[4]; FIG. 2 and FIG. 3 legends, unconjugated antibody, linker-agent and agents",modestly active
same,EC50,[4],11 nM
"CC1=C(/C=C/C(C)=C/C=C/C(C)=C/C(=O)O)C(C)(C)CCC1 [ATRA, all-trans-retinoic acid]",effect of ATRA alone on cell growth,[5],slowed cell growth
"C[C@]12CC[C@H](O)C[C@H]1CC[C@@H]1[C@@H]2CC[C@]2(C)[C@@H](c3ccc(=O)oc3)CC[C@]12O [Bufalin, reference compound]",EC50,[1],16 nM
same,"cytotoxic effect in Ramos cells, in words",[3],modestly active
same,"cytotoxic effect in SU-DHL-8 cells, in words",[4],modestly active
same,EC50,[2],7.3 nM
"CN(CCCN)CCCNC(=O)O[C@H]1CC[C@@]2(C)[C@H](CC[C@@H]3[C@@H]2CC[C@]2(C)[C@H](c4ccc(=O)oc4)CC[C@]32O)C1 [CEN-372, 5-[(1S,2S,5S,7R,10R,11S,14S,15R)-5-{3-[N-Methyl(3-aminopropyl)amino]propylaminocarbonyloxy}-11-hydroxy-2,15-dimethyltetracyclo[8.7.0.02, 7.011, 15]heptadec-14-yl]-2-pyranone]",EC50,[1],4.4 nM
same,EC50,[2],3.6 nM
